Assay results as given in paper PMC9061853, “Luminescent bis(benzo[d]thiazolyl)quinoxaline: facile synthesis, nucleic acid and protein BSA interaction, live-cell imaging, biopharmaceutical research and cancer theranostic application” (RSC Advances, 2019).

What was measured:
HeLa = experiment: MTT cytotoxicity assay, HeLa; assay type: cell-based, human; settings: for IC50: Homo sapiens, HeLa, 24 h incubation; for SF (selectivity factor) HeLa: ratio of IC50 for HEK-293 to IC50 for HeLa
Description: (§1) Cytotoxicity studies were performed for all the synthesized quinoxaline compounds (7a–7g) using standard 3-(4,5-dimethylthiazol-2-yl)-2,5-diphenyltetrazolium bromide (MTT) assay beside a panel of cancer cell lines such as human epithelioid cervix carcinoma (HeLa), human colorectal adenocarcinoma cell line (Caco-2) and one normal human embryonic kidney cells (HEK-293) in triplicates (Table 3). […] It is noteworthy to mention that Compound 7a and 7g presented best cytoselectivity in HeLa and Caco-2 cell lines respectively. […]
(§2) In vitro cytotoxic activities (MTT assay):
(§3) The basic detection of cytotoxicity of anticancer compounds in vitro is MTT assay. The MTT proliferation assay is based on the reduction of the yellow MTT tetrazolium salt (3-[4,5-dimethylthiazol-2-yl]-2,5diphenyltetrazolium bromide) by mitochondrial dehydrogenases to form a purple MTT formazan crystals in viable cells. Synthesized compounds (7a-g) were prior dissolved in 0.1% DMSO and then serial dilution with medium and used in the experiment. Three different types of cancer cell lines were used in this experiment i.e., human Epitheloid Cervix Carcinoma (HeLa), human colon cancer cell line (Caco-2) and one normal kidney cell (HEK-293) were used in the assay. The cells were harvested at the log phase and it is cell counted using haemocytometer. Approximately 1 × 10^3 cells per well were seeded using all the cell lines. They were cultured in 100 μL of a DMEM media in 96-well plates and incubated at 37 °C for 24 hours under a 5% CO2 atmosphere. The cells were then washed with 1X PBS buffer and fresh media was added to the cells. The cells were then treated with different concentrations of the drugs (0.65-150 µM) in the volume of […] /well. Cisplatin has been used as a standard positive control drug. The control wells contains the same cell count of 1 × 10^3 cells per well of 100 μL medium containing 0.1% DMSO. After 24 h (for HeLa cell and HEK-293) and 72 h (for Caco-2), the medium was discarded and it is washed with 1X PBS and it was incubated with 100 µl of MTT reagent (1 mg/ml) for 4 h at 37°C.
(§4) Then the 96 well plate was placed on the shaker for 10 min and subsequently the absorbance was recorded by the ELISA reader at λ = 490 nm. The experiments were performed in […]
(§5) triplicate. […]

HEK-293 = experiment: MTT cytotoxicity assay, HEK-293 normal cells; assay type: cell-based, human; settings: Homo sapiens, HEK293; 24 h incubation
Description: as §1, §2, §3, §4, §5

[1] = MTT cytotoxicity assay, Caco-2; assay type: cell-based, human; settings: human, Caco-2, ratio of IC50 for HEK-293 to IC50 for Caco-2; read-out: SF (selectivity factor) Caco-2
Description: as §2
as §3, with “/well.” for “/well. Cisplatin has been used as a standard positive control drug. The control wells contains the same cell count of 1 × 10^3 cells per well of 100 μL medium containing 0.1% DMSO. After 24 h (for HeLa cell and HEK-293) and 72 h (for Caco-2), the medium was discarded and it is washed with 1X PBS and it was incubated with 100 µl of MTT reagent (1 mg/ml) for 4 h at 37°C.”
(§6) The control wells contains the same cell count of 1 × 10^3 cells per well of 100 μL medium containing 0.1% DMSO. After 24 h (for HeLa cell and HEK-293) and 72 h (for Caco-2), the medium was discarded and it is washed with 1X PBS and it was incubated with 100 µl of MTT reagent (1 mg/ml) for 4 h at 37°C.
as §4, §5

Caco-2 = experiment: MTT cytotoxicity assay, Caco-2; assay type: cell-based, human; settings: Homo sapiens, Caco-2; 72 h incubation
Description: as §2
as §3, with “/well.” for “/well. Cisplatin has been used as a standard positive control drug. The control wells contains the same cell count of 1 × 10^3 cells per well of 100 μL medium containing 0.1% DMSO. After 24 h (for HeLa cell and HEK-293) and 72 h (for Caco-2), the medium was discarded and it is washed with 1X PBS and it was incubated with 100 µl of MTT reagent (1 mg/ml) for 4 h at 37°C.”
as §6, §4, §5

[2] = Fluorescence quantum yield in water; assay type: physicochemical; settings: 298 K, quinine sulphate as standard
Description: To know the absorption and emission behaviour of these synthesized compounds (7a–g), a standard concentration (3 × 10^−6 mol l^−1) in water has been used. In UV-vis spectra, λmax of all these compounds are observed at 320–330 nm due to π–π* transition (Fig. S1a ^†). The corresponding emission peaks are observed at 400–500 nm (Fig. S1b ^†). The emission of quantum yield (Φ) was calculated for all of the compounds (7a–g) using eqn (1) (Table S1 ^†). […]
2.6.2. Fluorescence study:
To know the emission property of all the synthesized complexes (7a-g), an initial investigation was performed using spectrofluorometric method in water by using absorption maximum as their excitation energy. Fluorescence quantum yield (Ф) of all the prepared compounds performed in water solution were calculated by employing the comparative William's method which involves the use of well-characterized standard with the known quantum yield value. Quinine sulphate was used as reference fluorophore excited at 350 nm and emission at 452 nm, quantum yield (ФR) = 0.50 in 1N H2SO4. The gradients of the plots are proportional to the quantum yield (Ф) of the studied system. The data obtained and quantum yield value calculated according to the equation (2): […]
Where, φ = Quantum yield, I = Peak Area, OD = absorbance at λmax, η = Refractive index of solvent and reference. Here, we have used Quinine Sulphate as a standard for calculating emission of quantum yield. […]

[3] = Metabolic stability in dog liver microsomes; assay type: in vitro ADME; settings: for % Metabolism in 30 min: 0.5 μM, 0.5 mg ml^−1 protein, NADPH, 37 °C; for half-life at 0.5 μM: dog, liver microsomes
Description: The in vitro metabolic rate of 7g was determined in liver microsomes and the intrinsic clearance (CLintr) was estimated. The study was conducted at 0.5 μM substrate concentration and microsomal protein concentration of 0.5 mg ml^−1. Metabolic stability study in the presence of microsomes and cofactor NADPH was performed at 37 °C, 60 rpm for 30 min time duration. NADPH free control incubation was performed simultaneously for 30 min to understand if there are any non-enzymatic metabolism related issues. […] Intrinsic clearance as given in Table 6, was calculated using eqn (8). ^†

CLint ([3]; DLM set 1) [μl per min per mg protein] | % Metabolism in 30 min ([3]; DLM set 1) [%] | CLint ([3]; DLM set 2) [μl per min per mg protein] | % Metabolism in 30 min ([3]; DLM set 2) [%] | half-life at 0.5 μM ([3]; DLM set 1) [h] | half-life at 0.5 μM ([3]; DLM set 2) [h] | Compound | IC50 (HeLa) [µM] | SF (selectivity factor) HeLa (HeLa) | IC50 (HEK-293) [µM] | selectivity ratio [1] | IC50 (Caco-2) [µM] | melting point [°C] | Φ, emission quantum yield [2]
– | – | – | – | – | – | Clc1cc2nc(COc3ccccc3-c3nc4ccccc4s3)c(COc3ccccc3-c3nc4ccccc4s3)nc2cc1Cl [Compound 7e] | 38.9 ± 0.1 | >5.1 | > 200 | > 9 | 20.9 ± 1.6 | 145 to 150 | 0.04
18 | 21 | 12 | 14 | 1.28 | 1.91 | COc1ccc2nc(COc3ccccc3-c3nc4ccccc4s3)c(COc3ccccc3-c3nc4ccccc4s3)nc2c1 [Compound 7g, 2,2'-((((6-methoxyquinoxaline-2,3-diyl)bis(methylene))bis(oxy))bis(2,1-phenylene))bis(benzo[d]thiazole)] | 36.8 ± 0.2 | >5.4 | > 200 | > 9 | 20.8 ± 1.6 | 155 to 160 | 0.013
